Data set [1] in a line: Mean residence time in Sprague-Dawley rat. Type of data set: ADME, organism-based. The settings on record: in vivo.
Data set [2] in a line: Mean residence time in beagle dog. To be noted: in vivo. Type of data set: ADME, organism-based, Canis lupus familiaris.
Data set [3] is described as follows: Clearance in beagle dog at 1 mg/kg, iv. Type of data set: ADME, organism-based, Canis lupus familiaris. The settings on record: in vivo.
Data set [4] in a line: Volume of distribution at steady state in Sprague-Dawley rat at 1 mg/kg, iv. The format is ADME, organism-based. To be noted: in vivo, read-out: Vdss.
The nature of data set [5]: Volume of distribution at steady state in beagle dog at 1 mg/kg, iv. The format is ADME, organism-based, Canis lupus familiaris. The settings on record: in vivo, read-out: Vdss.
Data set [6] can be described thus: Ratio of drug level in cerebrospinal fluid to brain in Sprague-Dawley rat at 1 mg/kg, iv after 0.5 hrs. Type of data set: ADME, organism-based, CSF/Brain. To be noted: in vivo.
The nature of data set [7]: Half life in beagle dog at 1 mg/kg, po. Type of data set: ADME, organism-based, Canis lupus familiaris. The settings on record: in vivo.
Data set [8] is described as follows: Tmax in Sprague-Dawley rat at 2 mg/kg, po. Type of data set: ADME, organism-based. To be noted: in vivo.
Data set [9] is described as follows: Tmax in beagle dog at 1 mg/kg, po. The settings on record: in vivo. The format is ADME, organism-based, Canis lupus familiaris.
Data set [10] deals with T1, Cytochrome P450 1A2 (Homo sapiens, UniProt P05177).
T1 sequence (P05177 whole entry): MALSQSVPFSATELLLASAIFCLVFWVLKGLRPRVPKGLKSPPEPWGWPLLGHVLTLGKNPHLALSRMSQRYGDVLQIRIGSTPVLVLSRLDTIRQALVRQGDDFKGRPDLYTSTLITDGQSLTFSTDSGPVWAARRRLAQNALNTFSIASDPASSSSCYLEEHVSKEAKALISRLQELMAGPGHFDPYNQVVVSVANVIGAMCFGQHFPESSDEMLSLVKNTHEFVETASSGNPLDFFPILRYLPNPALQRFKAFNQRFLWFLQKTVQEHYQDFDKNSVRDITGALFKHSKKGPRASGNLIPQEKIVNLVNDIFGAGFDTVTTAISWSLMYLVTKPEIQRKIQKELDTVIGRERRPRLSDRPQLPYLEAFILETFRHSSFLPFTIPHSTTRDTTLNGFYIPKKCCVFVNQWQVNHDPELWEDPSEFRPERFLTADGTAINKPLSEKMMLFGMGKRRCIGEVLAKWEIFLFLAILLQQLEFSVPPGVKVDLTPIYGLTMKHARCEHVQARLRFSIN
Description: Inhibition of CYP1A2 (unknown origin). The format is ADME.

In data set [11] the target is T2, Cytochrome P450 2C8 (Homo sapiens, UniProt P10632).
T2 sequence (P10632 whole entry): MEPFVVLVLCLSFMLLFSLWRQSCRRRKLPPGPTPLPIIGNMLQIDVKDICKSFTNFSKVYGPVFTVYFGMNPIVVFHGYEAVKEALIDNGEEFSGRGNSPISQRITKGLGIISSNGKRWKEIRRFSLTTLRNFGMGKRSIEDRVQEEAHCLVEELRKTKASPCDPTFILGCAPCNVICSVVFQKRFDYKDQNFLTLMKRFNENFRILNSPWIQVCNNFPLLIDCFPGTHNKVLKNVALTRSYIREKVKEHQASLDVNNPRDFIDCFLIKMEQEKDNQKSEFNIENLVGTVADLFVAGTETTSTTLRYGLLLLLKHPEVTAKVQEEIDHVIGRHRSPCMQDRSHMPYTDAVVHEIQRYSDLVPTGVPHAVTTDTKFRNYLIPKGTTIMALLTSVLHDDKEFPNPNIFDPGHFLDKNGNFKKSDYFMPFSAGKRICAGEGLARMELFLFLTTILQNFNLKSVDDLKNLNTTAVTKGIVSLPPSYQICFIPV
Description: Inhibition of CYP2C8 (unknown origin). The format is ADME.

Data set [12] deals with Cytochrome P450 2C9 (Homo sapiens, UniProt P11712). Description: Inhibition of CYP2C9 (unknown origin). Type of data set: ADME.
Chain of Cytochrome P450 2C9 (P11712 whole entry): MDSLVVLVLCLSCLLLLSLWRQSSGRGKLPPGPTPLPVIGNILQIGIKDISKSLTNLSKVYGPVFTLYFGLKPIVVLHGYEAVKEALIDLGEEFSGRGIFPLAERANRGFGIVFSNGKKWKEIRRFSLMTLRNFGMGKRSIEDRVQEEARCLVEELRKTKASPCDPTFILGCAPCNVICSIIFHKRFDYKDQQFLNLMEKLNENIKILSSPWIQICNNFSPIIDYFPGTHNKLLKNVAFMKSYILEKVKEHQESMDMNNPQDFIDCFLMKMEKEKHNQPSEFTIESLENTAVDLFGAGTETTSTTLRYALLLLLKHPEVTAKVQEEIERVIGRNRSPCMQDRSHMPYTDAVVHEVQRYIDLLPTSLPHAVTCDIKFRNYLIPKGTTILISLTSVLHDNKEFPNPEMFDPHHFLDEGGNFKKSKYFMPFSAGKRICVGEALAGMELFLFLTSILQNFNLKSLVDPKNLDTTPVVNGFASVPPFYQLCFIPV
For data set [13], the target named is Cytochrome P450 2C19 (Homo sapiens, UniProt P33261). Kind of data set: Inhibition of CYP2C19 (unknown origin). The format is ADME.
Chain of Cytochrome P450 2C19 (P33261 whole entry): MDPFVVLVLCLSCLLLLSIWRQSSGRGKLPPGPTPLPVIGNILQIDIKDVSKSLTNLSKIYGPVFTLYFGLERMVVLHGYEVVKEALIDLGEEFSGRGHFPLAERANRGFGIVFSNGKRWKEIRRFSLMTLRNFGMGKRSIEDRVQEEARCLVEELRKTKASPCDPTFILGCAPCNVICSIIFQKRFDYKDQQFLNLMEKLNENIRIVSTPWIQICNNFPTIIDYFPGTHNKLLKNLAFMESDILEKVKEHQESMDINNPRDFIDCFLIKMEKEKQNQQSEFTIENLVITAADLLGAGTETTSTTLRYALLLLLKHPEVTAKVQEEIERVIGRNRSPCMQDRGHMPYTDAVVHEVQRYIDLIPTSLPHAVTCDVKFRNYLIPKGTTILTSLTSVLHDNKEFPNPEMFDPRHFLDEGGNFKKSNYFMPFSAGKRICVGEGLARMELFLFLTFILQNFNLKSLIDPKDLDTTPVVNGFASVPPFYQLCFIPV
Data set [14] deals with Cytochrome P450 3A4 (Homo sapiens, UniProt P08684). Kind of data set: Inhibition of CYP3A4 (unknown origin). The format is ADME.
Chain of Cytochrome P450 3A4 (P08684 whole entry): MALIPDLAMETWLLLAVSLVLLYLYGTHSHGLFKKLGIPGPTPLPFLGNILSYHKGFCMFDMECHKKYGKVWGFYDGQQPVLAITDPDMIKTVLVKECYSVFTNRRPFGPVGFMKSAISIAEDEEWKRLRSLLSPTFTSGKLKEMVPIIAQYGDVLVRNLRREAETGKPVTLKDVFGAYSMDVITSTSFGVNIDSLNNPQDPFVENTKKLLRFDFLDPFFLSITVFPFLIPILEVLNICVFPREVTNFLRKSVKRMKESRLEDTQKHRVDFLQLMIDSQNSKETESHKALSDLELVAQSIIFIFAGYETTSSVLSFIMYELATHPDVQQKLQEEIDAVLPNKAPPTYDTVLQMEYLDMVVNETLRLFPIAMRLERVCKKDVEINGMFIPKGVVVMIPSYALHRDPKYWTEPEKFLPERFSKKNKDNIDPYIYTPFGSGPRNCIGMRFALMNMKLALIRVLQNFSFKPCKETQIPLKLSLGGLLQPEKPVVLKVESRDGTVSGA
Data set [15] in a line: Bidirectional apparent permeability of the compound across human Caco2 cells. The format is ADME, cell-based. To be noted: Caco-2, read-out: permeability.
Data set [16] can be described thus: Half life in dog hepatocytes. Type of data set: ADME, cell-based, Canis lupus familiaris, Hepatocyte.
Data set [17] relates to Rattus norvegicus. Kind of data set: Ex-vivo receptor occupancy of orexin receptor-2 Sprague-Dawley rat frontal cortex using [3H]EMPA at 1 mg/kg, po after 1 hr by autoradiography relative to control. Type of data set: functional.
Data set [18] has as its system Rattus norvegicus. Description: Antiinsomnic activity in CD1 rat assessed as increase of REM sleep at 10 mg/kg, po administered at circadian time 18 hrs measured after 3 hrs. Type of data set: functional.
Data set [19] has as its system Rattus norvegicus. Kind of data set: Antiinsomnic activity in CD1 rat assessed as increase of NREM sleep at 3 mg/kg, po administered at circadian time 18 hrs measured after 3 hrs. The format is functional.
The subject of data set [20] is Rattus norvegicus. Description: Antiinsomnic activity in CD1 rat assessed as increase of NREM sleep at 10 mg/kg, po administered at circadian time 18 hrs measured after 3 hrs. The format is functional.
The test system of data set [21] is Rattus norvegicus. Kind of data set: Effect on latency to first NREM episode CD1 rat assessed as reduction of at 3 and 10 mg/kg, po administered at circadian time 18 hrs. Type of data set: ADME, organism-based. To be noted: in vivo.
Data set [22] has as its target T3, Orexin receptor type 2 (Homo sapiens) (UniProt O43614).
T3 sequence (whole entry): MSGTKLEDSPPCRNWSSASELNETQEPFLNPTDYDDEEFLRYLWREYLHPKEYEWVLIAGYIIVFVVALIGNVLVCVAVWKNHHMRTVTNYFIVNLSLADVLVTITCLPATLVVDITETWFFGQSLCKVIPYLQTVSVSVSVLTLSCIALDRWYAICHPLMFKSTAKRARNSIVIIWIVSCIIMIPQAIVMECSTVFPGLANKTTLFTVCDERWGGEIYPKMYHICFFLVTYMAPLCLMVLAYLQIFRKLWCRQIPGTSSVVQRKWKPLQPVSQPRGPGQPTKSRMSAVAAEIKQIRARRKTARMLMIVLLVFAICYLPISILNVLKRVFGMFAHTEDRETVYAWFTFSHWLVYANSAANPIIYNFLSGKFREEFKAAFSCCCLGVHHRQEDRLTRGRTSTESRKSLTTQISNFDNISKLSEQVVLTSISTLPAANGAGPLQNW
Description: Binding affinity to orexin receptor-2 (unknown origin) assessed as dissociation half-life by SPR assay

In data set [23] the target is T4, Orexin/Hypocretin receptor type 1 (Homo sapiens) (UniProt O43613).
T4 sequence (whole entry): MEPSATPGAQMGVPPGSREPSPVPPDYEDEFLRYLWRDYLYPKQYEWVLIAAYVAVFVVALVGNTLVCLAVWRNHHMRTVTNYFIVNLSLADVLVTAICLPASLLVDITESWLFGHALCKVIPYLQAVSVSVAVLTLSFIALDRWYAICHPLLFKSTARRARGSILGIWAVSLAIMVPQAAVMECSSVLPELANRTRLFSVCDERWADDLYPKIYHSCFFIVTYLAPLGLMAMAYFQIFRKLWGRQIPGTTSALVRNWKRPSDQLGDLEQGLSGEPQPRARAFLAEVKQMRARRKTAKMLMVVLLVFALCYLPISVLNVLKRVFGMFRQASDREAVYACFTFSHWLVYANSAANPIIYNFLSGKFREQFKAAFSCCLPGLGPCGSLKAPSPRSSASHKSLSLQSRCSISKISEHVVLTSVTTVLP
To be noted: CHO.
Description: Antagonist activity at human orexin receptor-1 expressed in CHO cells assessed as orexin-A-induced ERK1/2 phosphorylation after 2 hrs by fluorescence assay

The target in data set [24] is T3, Orexin receptor type 2 (Homo sapiens). To be noted: CHO.
Description: Antagonist activity at human orexin receptor-2 expressed in CHO cells assessed as orexin-A-induced ERK1/2 phosphorylation after 2 hrs by fluorescence assay

Molecules are shown by their SMILES.

Usually MRT stands for a mean duration of stay, worked out from the concentration-time curve. As usually defined, the clearance is the volume of plasma or blood freed of the substance per unit of time. One may read the half-life as the time in which the quantity being followed falls by half. Read a high half-life as slow loss. Broadly, the Tmax is the time at which the peak concentration occurs. As usually defined, the IC50 is the concentration needed to halve the response being measured. The low end stands for higher potency, the high end for lower potency. Broadly, the pKb is the negative decadic logarithm of the Kb, by convention in mol/L. On to `COc1cc(N2C(=O)N(Cc3c(F)cc(F)cc3F)c3ncccc3S2(=O)=O)cnc1OC`, for which the MRT stood at 1.9 h in data set [1] and 4 h in data set [2]. The clearance in data set [3] was determined as 13 mL/min/kg. Further, the Vd amounted to 2.1 L/kg in data set [4] and 3 L/kg in data set [5]. In addition, the Ratio in data set [6] is on record as 0.01. The half-life is 7.1 h in data set [7] and over 1.83 h in data set [16]. The values for the Tmax in data set [8] and in [9] were 0.5 h and 0.4 h, respectively. In addition, the IC50 in [10], in [11], in data set [12], in [13] and in data set [14] was over 10 µM throughout. In addition, the Papp in [15] is 52 ×10⁻⁶ cm/s. In addition, in [17], the Occ was found to be 57%. For the same compound, the Activity in data set [18] was 69.6%; in [19], 28.8%; in [20], 30.7%; in [21], “Non-toxic”. Also, the T1/2 in [22] worked out at 4.2 min. The pKb turned out to be 6.6 in data set [23] and 7.3 in [24].

Source of the values: ChEMBL document CHEMBL3739366, “Discovery of HTL6641, a dual orexin receptor antagonist with differentiated pharmacodynamic properties” (Medchemcomm, 2015).
